Patent publication US20130315843A1, “COMPOSITION FOR REDUCTION OF TRPA1 AND TRPV1 SENSATIONS” (priority 2012, published 2013)
Structures can show the parent of a compound that is named as a salt.

Legend:
human TRPA1 = human TRPA1 (Homo sapiens, UniProt O75762); assay: FLIPR Ca2+ assay, reduction of L-Menthol activation of TRPA1; details: 100 μM antagonist vs 1 mM L-Menthol
human TRPV1 = human TRPV1 (Homo sapiens, UniProt Q8NER1); assay: FLIPR Ca2+ assay, reduction of L-Menthol activation of TRPV1; details: for inhibition at 100 µM: read-out: % Reduction of L-Menthol TRPV1 Activation
human TRPV1, sequence (Q8NER1 whole entry): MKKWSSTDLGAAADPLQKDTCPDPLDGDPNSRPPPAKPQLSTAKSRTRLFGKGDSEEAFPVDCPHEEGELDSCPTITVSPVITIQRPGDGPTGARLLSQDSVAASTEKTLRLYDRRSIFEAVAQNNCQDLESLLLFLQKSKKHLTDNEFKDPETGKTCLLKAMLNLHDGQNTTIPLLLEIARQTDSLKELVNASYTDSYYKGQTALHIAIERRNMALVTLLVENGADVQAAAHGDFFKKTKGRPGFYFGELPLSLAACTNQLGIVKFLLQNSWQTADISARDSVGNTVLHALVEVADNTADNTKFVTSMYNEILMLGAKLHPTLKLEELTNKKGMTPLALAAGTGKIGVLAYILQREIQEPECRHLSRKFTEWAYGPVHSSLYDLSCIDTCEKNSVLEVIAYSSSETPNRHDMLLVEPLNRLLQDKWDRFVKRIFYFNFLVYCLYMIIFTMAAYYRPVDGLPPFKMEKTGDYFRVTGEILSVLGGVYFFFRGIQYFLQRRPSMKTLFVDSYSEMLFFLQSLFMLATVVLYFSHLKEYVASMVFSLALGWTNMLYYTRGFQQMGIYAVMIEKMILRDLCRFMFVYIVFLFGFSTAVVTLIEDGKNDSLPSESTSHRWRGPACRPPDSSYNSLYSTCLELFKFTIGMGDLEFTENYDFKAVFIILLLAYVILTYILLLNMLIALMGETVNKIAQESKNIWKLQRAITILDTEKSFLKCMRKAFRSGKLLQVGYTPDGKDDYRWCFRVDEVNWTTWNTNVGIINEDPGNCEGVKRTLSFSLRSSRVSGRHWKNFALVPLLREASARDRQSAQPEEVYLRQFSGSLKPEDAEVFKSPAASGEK

[1] = antagonist 100 μM against 1 mM L-Menthol

human TRPA1, sequence (O75762 whole entry): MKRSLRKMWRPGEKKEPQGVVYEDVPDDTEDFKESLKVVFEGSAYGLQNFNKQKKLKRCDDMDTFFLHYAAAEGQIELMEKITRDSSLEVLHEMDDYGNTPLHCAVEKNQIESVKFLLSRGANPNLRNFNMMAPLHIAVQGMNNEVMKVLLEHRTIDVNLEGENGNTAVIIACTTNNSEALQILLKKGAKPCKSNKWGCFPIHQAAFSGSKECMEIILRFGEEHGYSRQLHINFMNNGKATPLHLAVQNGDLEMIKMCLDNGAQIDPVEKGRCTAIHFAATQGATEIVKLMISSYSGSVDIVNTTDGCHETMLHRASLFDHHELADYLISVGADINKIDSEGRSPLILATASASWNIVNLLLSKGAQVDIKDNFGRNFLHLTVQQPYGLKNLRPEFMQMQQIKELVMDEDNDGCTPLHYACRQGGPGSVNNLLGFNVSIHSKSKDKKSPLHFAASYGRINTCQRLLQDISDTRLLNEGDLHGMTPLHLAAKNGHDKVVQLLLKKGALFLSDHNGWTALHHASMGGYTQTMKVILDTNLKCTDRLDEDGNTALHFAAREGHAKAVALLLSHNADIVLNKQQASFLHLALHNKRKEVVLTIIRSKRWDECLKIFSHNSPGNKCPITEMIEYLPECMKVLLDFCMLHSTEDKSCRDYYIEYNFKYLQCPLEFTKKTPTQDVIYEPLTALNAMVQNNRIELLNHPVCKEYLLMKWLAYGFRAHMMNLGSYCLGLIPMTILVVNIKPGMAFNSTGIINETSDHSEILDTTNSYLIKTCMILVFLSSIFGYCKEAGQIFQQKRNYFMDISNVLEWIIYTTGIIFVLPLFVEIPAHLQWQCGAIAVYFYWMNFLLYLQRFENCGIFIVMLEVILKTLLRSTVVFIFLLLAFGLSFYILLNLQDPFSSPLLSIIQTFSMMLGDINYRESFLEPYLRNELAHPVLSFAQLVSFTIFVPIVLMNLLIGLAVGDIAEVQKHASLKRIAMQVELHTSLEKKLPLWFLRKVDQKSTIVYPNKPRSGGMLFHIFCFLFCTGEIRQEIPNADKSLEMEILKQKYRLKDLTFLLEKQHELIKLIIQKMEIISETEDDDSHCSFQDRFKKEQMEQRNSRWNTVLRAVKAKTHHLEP

Row | Block of L-Menthol activation of TRPA1 (human TRPA1) | Average Ca2+ Counts (human TRPV1; [1]) | inhibition at 100 µM (human TRPV1) | Structure (SMILES) | % Reduction of L-Menthol TRPV1 Activation (human TRPV1; [1])
1 | BLOCK ONLY MENTHOL/TRPA1 | 1102.7 Counts | 40.9% | CCC/C=C/C(=O)OCC [ethyl trans-2-hexenoate] | 
2 | BLOCK ONLY MENTHOL/TRPA1 | 1399.0 Counts | 27.2% | COc1ccc(COC=O)cc1 [4-methoxybenzyl formate] | 
3 | BLOCK ONLY MENTHOL/TRPA1 | 1339.3 Counts | 30% | Cc1ccc(C)c(O)c1C [2,3,6-trimethylphenol] | 
4 | BLOCK ONLY MENTHOL/TRPA1 | 2572.0 Counts | 44.6% | C=CCOC(=O)CCCCCCC [allyl caprylate] | 
5 | BLOCK ONLY MENTHOL/TRPA1 | 1432.7 Counts | 25.7% | CCc1nccnc1OC [2-ethyl-3-methoxypyrazine] | 
6 | BLOCK ONLY MENTHOL/TRPA1 | 1554.0 Counts | 20% | CSC(C)C(C)=O (stereo not drawn) [3-methylthio-2-butanone] | 
7 | BLOCK ONLY MENTHOL/TRPA1 | 3655.5 Counts | 42.9% | CCCCCC(=O)OCC [ethyl hexanoate] | 
8 | BLOCK ONLY MENTHOL/TRPA1 | 3377.0 Counts | 47.2% | O=C(C=Cc1ccccc1)OCC=Cc1ccccc1 [3-phenyl-2-propen-1-yl 3-phenylacrylate] | 
9 | BLOCK ONLY MENTHOL/TRPA1 | 1424.7 Counts | 26% | CCCC/C=C\CCO [cis-3-octen-1-ol] | 
10 | BLOCK ONLY MENTHOL/TRPA1 | 1112.7 Counts | 40.5% | Cc1ccc(C(C)C)cc1 [1-isopropyl-4-methylbenzene] | 
11 | BLOCK ONLY MENTHOL/TRPA1 | 2386.5 Counts | 40.9% | CCCOC(=O)C(C)=O [propyl pyruvate] | 
12 | BLOCK ONLY MENTHOL/TRPA1 | 1207.7 Counts | 36.1% | O=C(Nc1ccccc1C(=O)O)c1ccccc1 [2-benzoylamino-benzoic acid] | 
13 | BLOCK ONLY MENTHOL/TRPA1 | 1442.3 Counts | 25.2% | CCCCCCCCO [1-octanol] | 
14 | BLOCK ONLY MENTHOL/TRPA1 | 1227.7 Counts | 35.1% | C=Cc1scnc1C [4-methyl-5-vinylthiazole] | 
15 | BLOCK ONLY MENTHOL/TRPA1 | 1398.0 Counts | 27.3% | CCCCOC(=O)CCCCCCCCC(=O)OCCCC [dibutyl sebacate] | 
16 | BLOCK ONLY MENTHOL/TRPA1 | 1431.3 Counts | 25.7% | CCCCCCCC/C=C\CCCCCCCC(=O)OCC [ethyl oleate] | 
17 | BLOCK ONLY MENTHOL/TRPA1 | 2968.5 Counts | 26.4% | CC(=O)C(=O)CC(C)C [5-methyl-2,3-hexanedione] | 
18 | BLOCK ONLY MENTHOL/TRPA1 | 3652.0 Counts | 21.3% | CCC(C)SSC(C)CC (stereo not drawn) [sec-butyl disulfide] | 
19 | BLOCK ONLY MENTHOL/TRPA1 | 1040.0 Counts | 43.8% | Cc1cnc(C)cn1 [2,5-dimethylpyrazine] | 
20 | BLOCK ONLY MENTHOL/TRPA1 | 3633.0 Counts | 43.2% | COc1ccc(OC)cc1 [1,4-dimethoxybenzene] | 
21 | BLOCK ONLY MENTHOL/TRPA1 | 1061.3 Counts | 42.8% | CC(=O)OCCC(C)S (stereo not drawn) [3-mercaptobutyl acetate] | 
22 | BLOCK ONLY MENTHOL/TRPA1 | 3569.5 Counts | 23.1% | CC(=O)c1nccs1 [2-acetylthiazole] | 
23 | BLOCK ONLY MENTHOL/TRPA1 | 1047.0 Counts | 43.5% | CCCCCCCCCCCCCCCCOC(=O)C(C)O (stereo not drawn) [hexadecyl lactate] | 

Row | Structure (SMILES) | Block of L-Menthol activation of TRPA1 (human TRPA1) | Average Ca2+ Counts (human TRPV1; [1]) | inhibition at 100 µM (human TRPV1) | % Reduction of L-Menthol TRPV1 Activation (human TRPV1; [1])
24 | CCOC(=O)C1OC1c1ccccc1 (stereo not drawn) [ethyl 3-phenylglycidate] | BLOCK ONLY MENTHOL/TRPA1 | 1987.0 Counts |  | 50.8%
25 | CC(C)CCOC=O [isopentyl formate] | BLOCK ONLY MENTHOL/TRPA1 | 1451.7 Counts | 24.8% | 
